Columns and labels:
[1] = Dye fading of shampoo under fluorescent light, Example 48; conditions: Suave shampoo; fluorescent light aging, ambient temperature; loading 0.30 wt %
Protocol: (§1) The instant compounds are added to a commercial shampoo formulation and are evaluated for their ability to reduce the amount of dye fading when the samples are exposed to fluorescent lighting. The instant compounds (0.36 g) are dissolved in 5 mL of methanol which is then added to 120 g of shampoo (Suave^R Natural^R, Fresh Mountain Strawberry) with agitation. A benzotriazole UV absorber, 2-(2-hydroxy-3-tert-butyl-5-methylphenyl)-2H-benzotriazole-5-sulfonic acid, sodium salt (UVA), is optionally added to the shampoo formulation at an equivalent concentration. The stabilized shampoo formulation is agitated for 15 minutes and put into 20 mL glass scintillation vials. These formulations are weathered under fluorescent light aging at ambient temperature. The CIEL*a*b coordinates before and after exposure are measured using X-Rite 938 Spectrodensitometer. Color change is expressed as Delta E (DE).

[2] = Ink jet media light fastness, cyan, Example 38; conditions: 100% print density; office fluorescent lighting; total stabilizer 650-700 mg/m2, mixtures 1:1 by weight
Protocol: (§2) A resin-coated paper impregnated with inorganic adsorbent particles (Konica QP Photoglossy ink jet paper, Konica Corp.) is purchased. On the ink-receiving layer, a 0.8 wt % methanol solution of the instant compounds is applied in an amount to achieve 650-700 mg/m^2. The paper is allowed to dry under ambient temperature and pressure for 24 hours. Separately, test patterns (cyan and yellow) are printed on the treated sheets using a Hewlett Packard DeskJet 970 Cxi printer at 100% print density. The obtained prints are left to dry at ambient temperature and pressure for 24 hours. Color densities and CIEL*a*b coordinates before and after exposure are measured using X-Rite 938 Spectrodensitometer. Exposures are carried out using normal office fluorescent lighting.

[3] = Ink jet media light fastness, yellow, Example 38; conditions: 100% print density; office fluorescent lighting; total stabilizer 650-700 mg/m2, mixtures 1:1 by weight
Protocol: as §2

[4] = Ink jet media light fastness, cyan, Example 31; conditions: 100% print density, office fluorescent lighting
Protocol: as §2, with “mg/m^2, unless otherwise stated.” for “mg/m^2.”, “(cyan)” for “(cyan and yellow)”

[5] = Ink jet media light fastness, magenta, Example 32; conditions: 100% print density, office fluorescent lighting
Protocol: as §2, with “mg/m^2, unless otherwise stated.” for “mg/m^2.”, “(magenta)” for “(cyan and yellow)”

[6] = Ink jet media light fastness, yellow, Example 33; conditions: 50% print density as printed, office fluorescent lighting, 650-700 mg/m2
Protocol: as §2, with “mg/m^2, unless stated otherwise.” for “mg/m^2.”, “(yellow)” for “(cyan and yellow)”, “50%” for “100%”

[7] = Ink jet media light fastness, cyan, Example 34; conditions: 50% print density, office fluorescent lighting
Protocol: as §2, with “mg/m^2, unless otherwise stated.” for “mg/m^2.”, “(cyan)” for “(cyan and yellow)”, “50%” for “100%”

[8] = Ink jet media light fastness, yellow, Example 36; conditions: 50% print density, office fluorescent lighting, 650-700 mg/m2
Protocol: as §2, with “mg/m^2, unless stated otherwise.” for “mg/m^2.”, “(yellow)” for “(cyan and yellow)”, “50%” for “100%”

[9] = Solubility in 50% butyl carbitol / 50% water; assay type: physicochemical; conditions: 50% butyl carbitol / 50% water by weight; stirred 30 minutes
Protocol: The solubility of the instant compounds is evaluated in polar solvent systems. A solution of 50% butyl carbitol by weight and 50% water by weight is prepared. The instant compounds are added to this solution, stirred for 30 minutes, and sampled for analysis. Samples containing bis(1-octyloxy-2,2,6,6-tetramethylpiperidin-4-yl)sebacate and 4-hydroxy-1-(2-hydroxy-2-methylpropoxy)-2,2,6,6-tetramethylpiperidine are filtered to remove any undissolved residue and all samples are analyzed by high pressure liquid chromatography or gas chromatography.

[10] = Solubility in 50% butyl cellusolve / 50% water; assay type: physicochemical; conditions: 50% butyl cellusolve / 50% water by weight; stirred 30 minutes
Protocol: The solubility of the instant compounds is evaluated in polar solvent systems. A solution of 50% butyl cellusolve by weight and 50% water by weight is prepared. The instant compounds are added to this solution stirred for 30 minutes, and sampled for analysis. Samples containing bis(1-octyloxy-2,2,6,6-tetramethylpiperidin-4-yl)sebacate and 4-hydroxy-1-(2-hydroxy-2-methylpropoxy)-2,2,6,6-tetramethylpiperidine are filtered to remove any undissolved residue and all samples are analyzed by high pressure liquid chromatography or gas chromatography.

[11] = Dye fading of shampoo under fluorescent light, Example 49; conditions: Clairol Herbal Essences shampoo; fluorescent light aging; loading 0.30 wt %
Protocol: as §1, with “(Clairol^R Herbal Essences Shampoo)” for “(Suave^R Natural^R, Fresh Mountain Strawberry)”, “formulation.” for “formulation at an equivalent concentration.”

[12] = Dye fading of mouthwash under fluorescent light, Example 50; conditions: Scope Original Mint mouthwash; fluorescent light aging; loading 0.30 wt %
Protocol: as §1, with “mouthwash” for “shampoo”, “mouthwash (Scope^R Original Mint)” for “shampoo (Suave^R Natural^R, Fresh Mountain Strawberry)”, “mouthwash formulation.” for “shampoo formulation at an equivalent concentration.”

[13] = Ink jet media light fastness, magenta, Example 35; conditions: 50% print density, office fluorescent lighting
Protocol: as §2, with “mg/m^2, unless otherwise stated.” for “mg/m^2.”, “(magenta)” for “(cyan and yellow)”, “50%” for “100%”

Structure (SMILES): CC(C)(O)CON1C(C)(C)CC(OC(=O)CCC(=O)O)CC1(C)C [Example 17]
- DE after 2 weeks [1]: 8.91

Structure (SMILES): Cl.ON(Cc1ccccc1)Cc1ccccc1 [Compound A, N,N-dibenzylhydroxylamine hydrochloride, reference compound]
- DE for cyan after 3 months [2]: 11.96
- DE for yellow after 3 months [3]: 5.31

Structure (SMILES): CN(C)CCNC1CC(C)(C)N(OCC(C)(C)O)C(C)(C)C1 [Example 6]
- DE after 2 weeks [1]: 7.53

Structure (SMILES): CC(C)(O)CON1C(C)(C)CC(NCCO)CC1(C)C.Cl [Example 22]
- DE for cyan after 4 weeks ([4]; 650-700 mg/m2): 5.26
- DE for cyan after 4 weeks ([4]; (2x) 1300 to 1400 mg/m2): 4.62
- DE for magenta after 4 weeks ([5]; 650-700 mg/m2): 25.20
- DE for magenta after 4 weeks ([5]; (2x) 1300 to 1400 mg/m2): 21.96
- DE for yellow after 4 weeks [6]: 5.53
- DE for cyan after 4 weeks ([7]; 650-700 mg/m2): 5.98
- DE for cyan after 4 weeks ([7]; (2x) 1300 to 1400 mg/m2): 5.11
- DE for yellow after 4 weeks [8]: 3.15

Structure (SMILES): CC(NC1CC(C)(C)N(OCC(C)(C)O)C(C)(C)C1)C(=O)[O-].[K+] (centres unmarked) [Example 5]
- Solubility (% by weight) [9]: ≧15 % by weight
- Solubility (% by weight) [10]: ≧18 % by weight
- DE after 2 weeks [11]: 1.55

Structure (SMILES): CC(C)(O)CON1C(C)(C)CC(OC(=O)C(C)(C)O)CC1(C)C [Example 18]
- DE after 2 weeks [12]: 5.11

Structure (SMILES): CC(C)(O)CON1C(C)(C)CC(N)CC1(C)C [Example 7]
- DE for cyan after 4 weeks ([4]; 650-700 mg/m2): 4.27
- DE for magenta after 4 weeks ([5]; 650-700 mg/m2): 20.78
- DE for magenta after 4 weeks ([5]; (2x) 1300 to 1400 mg/m2): 19.52
- DE for magenta after 4 weeks ([5]; (3x) 1950 to 2100 mg/m2): 12.99
- DE for cyan after 4 weeks ([7]; 650-700 mg/m2): 5.85
- DE for cyan after 4 weeks ([7]; (2x) 1300 to 1400 mg/m2): 4.95
- DE for cyan after 4 weeks ([7]; (3x) 1950 to 2100 mg/m2): 4.34
- DE for magenta after 4 weeks ([13]; 650-700 mg/m2): 16.62
- DE for magenta after 4 weeks ([13]; (2x) 1300 to 1400 mg/m2): 14.14
- DE for magenta after 4 weeks ([13]; (3x) 1950 to 2100 mg/m2): 8.60
- DE after 2 weeks [11]: 3.96

Structure (SMILES): CC(=O)NCC(=O)NC1CC(C)(C)N(OCC(C)(C)O)C(C)(C)C1 [Example 37]
- DE for cyan after 3 months [2]: 11.39
- DE for yellow after 3 months [3]: 2.96

— US7550599B2, “Water compatible sterically hindered alkoxyamines and hydroxy substituted alkoxyamines” (Ciba Specialty Chemicals Corporation, priority 2003, dated 2009)
